Assay results: paper PMC9589981, “High-Resolution Epitope Mapping and Affinity Binding Analysis Comparing a New Anti-Human LAG3 Rabbit Antibody Clone to the Commonly Used Mouse 17B4 Clone” (Antibodies, 2022)

System: mouse 17B4 antibody (binding to LAG3 from HH cell lysate)
Test: ACE (automated capillary electrophoresis) peptide inhibition assay, 17B4
Settings: result in words, peptide at 5000 nM and 500 nM
Method: For each assay run, HH cell lysate was mixed with 0.1× WES sample buffer reagent, and reconstituted WES 5× Fluorescent Mix reagent followed by denaturation at 95 °C for 3 min and then held on ice followed until use. Denatured sample was added to each of the designated wells of the separation module sampling plate. Dilutions of the stock rabbit SP464 and mouse 17B4 monoclonal antibodies were made to the desired concentrations using the WES detection module Antibody Dilution Buffer 2 reagent. Diluted antibody solutions were added to the designated wells of the separation module sampling plate. The remaining WES assay reagents were finally added to the plate and then processed in the WES instrument using the default running and detection parameters.
HH cell lysate samples were prepared and used as above for antibody titration assays. Rabbit SP464 and mouse 17B4 antibodies were diluted to 4 µg/mL in the WES detection module Antibody Dilution Buffer 2 reagent. The antibody solutions were then diluted 1:1 (vol/vol) with varying concentrations of peptide, or diluent as a no peptide control, for 1 h at RT, and 10 µL of each antibody/peptide solution was added to the designated wells of the separation module sampling plate. Samples were run in duplicates or triplicates. Plates were then processed in the WES instrument using default running and detection parameters.

PAAAPGHPLA [central ten amino acid fragment within the N-terminal 15 amino acids]
inhibition of 17B4 binding by immunogen fragment (ACE): inhibited binding | inhibition of 17B4 binding by immunogen fragment (ACE) (listed as center sub-domain fragment): complete inhibition
